{"source": "ChEMBL document CHEMBL1145562", "about": "“Substituted dipiperidine alcohols as potent CCR2 antagonists” (Bioorg Med Chem Lett, 2008)", "data": [{"target": "T1, C-C chemokine receptor type 2 (Homo sapiens, UniProt P41597)", "T1 sequence (P41597 whole entry)": "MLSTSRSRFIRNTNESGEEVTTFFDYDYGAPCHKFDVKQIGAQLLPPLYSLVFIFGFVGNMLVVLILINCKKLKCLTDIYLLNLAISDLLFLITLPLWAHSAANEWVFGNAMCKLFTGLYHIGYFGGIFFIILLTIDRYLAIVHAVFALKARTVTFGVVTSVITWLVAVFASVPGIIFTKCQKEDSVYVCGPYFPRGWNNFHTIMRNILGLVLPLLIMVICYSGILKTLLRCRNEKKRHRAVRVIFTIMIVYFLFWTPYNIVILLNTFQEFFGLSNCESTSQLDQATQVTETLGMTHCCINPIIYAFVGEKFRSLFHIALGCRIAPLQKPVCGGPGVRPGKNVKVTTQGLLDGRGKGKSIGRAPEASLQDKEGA", "assay": "Antagonist activity at CCR2 receptor expressed in THP1 cells assessed as inhibition of MCP-1-induced chemotaxis", "units": {"IC50": "nM"}, "values": [{"compound": "O=C(/C=C/c1cc(F)c(F)c(F)c1)N1CCC([C@@H](CO)N2CCC(c3c[nH]c4ccccc34)CC2)CC1", "IC50": 3.5}]}, {"target": "T1, C-C chemokine receptor type 2", "assay": "Binding affinity at human CCR2 receptor", "units": {"IC50": "nM"}, "values": [{"compound": "O=C(/C=C/c1cc(F)c(F)c(F)c1)N1CCC([C@@H](CO)N2CCC(c3c[nH]c4ccccc34)CC2)CC1", "IC50": 2.4}, {"compound": "CC(=O)Nc1ccc2[nH]cc(C3CCN(C(CO)C4CCN(C(=O)/C=C/c5cc(F)c(F)c(F)c5)CC4)CC3)c2c1", "note": "(configuration not stated)", "IC50": 2}, {"compound": "CN(C)CC(C1CCN(C(=O)/C=C/c2cc(F)c(F)c(F)c2)CC1)N1CCC(c2c[nH]c3ccccc23)CC1", "note": "(configuration not stated)", "IC50": 4800}, {"compound": "O=C(/C=C/c1cccc(Br)c1)N1CCC(C(CO)N2CCC(c3c[nH]c4ccccc34)CC2)CC1", "note": "(configuration not stated)", "IC50": 9}, {"compound": "O=C(/C=C/c1cc(F)c(F)c(F)c1)N1CCC([C@H](CO)N2CCC(c3c[nH]c4ccccc34)CC2)CC1", "IC50": 10}, {"compound": "O=C(/C=C/c1ccc(F)c(Br)c1)N1CCC(C(CO)N2CCC(c3c[nH]c4ccccc34)CC2)CC1", "note": "(configuration not stated)", "IC50": 2}, {"compound": "COC(=O)c1ccc2[nH]cc(C3CCN(C(CO)C4CCN(C(=O)/C=C/c5cc(F)c(F)c(F)c5)CC4)CC3)c2c1", "note": "(configuration not stated)", "IC50": 20}, {"compound": "COC(=O)c1ccc2[nH]cc(C3CCN(C(CO)C4CCN(C(=O)Nc5ccc(Cl)c(Cl)c5)CC4)CC3)c2c1", "note": "(configuration not stated)", "IC50": 50}, {"compound": "O=C(O)c1ccc2[nH]cc(C3CCN(C(CO)C4CCN(C(=O)Nc5ccc(Cl)c(Cl)c5)CC4)CC3)c2c1", "note": "(configuration not stated)", "IC50": 10}, {"compound": "Nc1ccc2[nH]cc(C3CCN(C(CO)C4CCN(C(=O)/C=C/c5cc(F)c(F)c(F)c5)CC4)CC3)c2c1", "note": "(configuration not stated)", "IC50": 1}, {"compound": "O=C(/C=C/c1cc(F)c(F)c(F)c1)N1CCC(C(CO)N2CCC(c3c[nH]c4ccc(O)cc34)CC2)CC1", "note": "(configuration not stated)", "IC50": 1}]}]}
